ChEMBL document CHEMBL1201862, “PubChem BioAssay data set” (2004)
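Cells were grown in 96-well plates and exposed to each compound for 48 hours at five concentrations; endpoints were interpolated linearly between bracketing concentrations, or set to the highest concentration if not reached. Abbreviation: GI50, concentration required for 50% inhibition of growth.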 Calls of active or inactive are those of the source. No stated cut-off is given here; in the data, active = GI50 up to about 1.1 µM and inactive = higher.

Tests used:
Assay in all cases: NCI anticancer screen, dose series, 48 h
786-0 = test system: 786-0
CCRF-CEM = test system: CCRF-CEM
HCC 2998 = test system: HCC 2998
HCT-116 = test system: HCT-116
HCT-15 = test system: HCT-15
KM12 = test system: KM12
M19-MEL = test system: M19-MEL
NCI-H522 = test system: NCI-H522
OVCAR-3 = test system: OVCAR-3
SF-539 = test system: SF-539
SK-MEL-28 = test system: SK-MEL-28
SNB-19 = test system: SNB-19
SR = test system: SR
UACC-257 = test system: UACC-257
UACC-62 = test system: UACC-62
UO-31 = test system: UO-31
BT-549 = test system: BT-549
MCF7 = test system: MCF7
MDA-MB-231 = test system: MDA-MB-231
T47D = test system: T47D

| SMILES | GI50 (786-0) | GI50 (CCRF-CEM) | GI50 (HCC 2998) | GI50 (HCT-116) | GI50 (HCT-15) [µM] | GI50 (KM12) | GI50 (M19-MEL) | GI50 (NCI-H522) | GI50 (OVCAR-3) | GI50 (SF-539) | GI50 (SK-MEL-28) | GI50 (SNB-19) | GI50 (SR) | GI50 (UACC-257) | GI50 (UACC-62) | GI50 (UO-31) | GI50 (BT-549) | GI50 (MCF7) | GI50 (MDA-MB-231) | GI50 (T47D) |
| --- | --- | --- | --- | --- | --- | --- | --- | --- | --- | --- | --- | --- | --- | --- | --- | --- | --- | --- | --- | --- |
| C=CCCCn1ccc2ccccc21 | > 100 µM (inactive) | > 100 µM (inactive) | > 100 µM (inactive) | > 100 µM (inactive) | > 100 | > 100 µM (inactive) | > 100 µM (inactive) | > 100 µM (inactive) | > 100 µM (inactive) | > 100 µM (inactive) | > 100 µM (inactive) | > 100 µM (inactive) | > 100 µM (inactive) | > 100 µM (inactive) | 75.9 µM (inactive) | > 100 µM (inactive) |  |  |  |  |
| CCOC(=O)CC[C@@H](NC(=O)c1ccc(N[C@@H]2c3cc4c(cc3C(c3cc(OC)c(O)c(OC)c3)C3C(=O)OC[C@@H]32)OCO4)cc1)C(=O)OCC (stereo partly drawn) | 3.85 µM (inactive) | 0.00525 µM (active) | 0.136 µM (active) |  | 0.0637 | 0.0322 µM (active) | 0.0608 µM (active) | 0.0975 µM (active) | 0.143 µM (active) | 0.0157 µM (active) | 0.2 µM (active) | 0.0197 µM (active) | > 10 µM (inactive) | 0.13 µM (active) | 0.0167 µM (active) | 0.0627 µM (active) |  |  |  |  |
| Cn1nc(-c2cccc(-c3nn(C)/c(=N\CCO)s3)n2)s/c1=N/CCO | > 100 µM (inactive) | > 100 µM (inactive) |  | > 100 µM (inactive) | > 100 | > 100 µM (inactive) | > 100 µM (inactive) | 36.5 µM (inactive) |  | > 100 µM (inactive) | > 100 µM (inactive) | > 100 µM (inactive) | > 100 µM (inactive) | > 100 µM (inactive) | > 100 µM (inactive) |  |  |  |  |  |
| COc1ccc(/N=c2\ssc3c(=S)ssc23)cc1 | 34.1 µM (inactive) | 3.68 µM (inactive) | 37.2 µM (inactive) | 26 µM (inactive) | 18.3 | 62.7 µM (inactive) | 30.2 µM (inactive) | 13.9 µM (inactive) | 25.2 µM (inactive) | 27.4 µM (inactive) | 25.3 µM (inactive) |  | 3.61 µM (inactive) | > 10 µM (inactive) | 20.2 µM (inactive) |  |  |  |  |  |
| Oc1cccc(-c2cccc(O)n2)n1 | > 100 µM (inactive) | > 100 µM (inactive) | > 100 µM (inactive) | > 100 µM (inactive) | > 100 | > 100 µM (inactive) | > 100 µM (inactive) |  | > 100 µM (inactive) | > 100 µM (inactive) | > 100 µM (inactive) |  |  | > 100 µM (inactive) | > 100 µM (inactive) | > 100 µM (inactive) |  |  |  |  |
| COC(=O)NC(Nc1ccc(C)cc1)(C(F)(F)F)C(F)(F)F | > 100 µM (inactive) | > 100 µM (inactive) | > 100 µM (inactive) | > 100 µM (inactive) | > 100 | > 100 µM (inactive) |  | > 100 µM (inactive) | > 100 µM (inactive) | > 100 µM (inactive) | > 100 µM (inactive) | > 100 µM (inactive) | 61.2 µM (inactive) | > 100 µM (inactive) | > 100 µM (inactive) | 18.3 µM (inactive) | > 100 µM (inactive) | > 100 µM (inactive) | > 100 µM (inactive) | > 100 µM (inactive) |
| COc1ccccc1C1Nn2c(nc3ccccc3c2=O)N1c1ccc(C)cc1 (stereo not drawn) | 2.67 µM (inactive) | 1.82 µM (inactive) | 3.8 µM (inactive) | 4.23 µM (inactive) | 3.49 | 11.2 µM (inactive) |  | 7.8 µM (inactive) | 4.65 µM (inactive) | 3.51 µM (inactive) | 5.94 µM (inactive) | 6.59 µM (inactive) | 1.38 µM (inactive) | 16.3 µM (inactive) | 9.31 µM (inactive) | 6.73 µM (inactive) | 21.8 µM (inactive) | 6.49 µM (inactive) | 5.62 µM (inactive) | 4.82 µM (inactive) |
| O=c1c(Cl)c(Cl)cnn1CCc1ccncc1 | 19.6 µM (inactive) | 19.1 µM (inactive) | 14.5 µM (inactive) | 16.6 µM (inactive) | 16.4 | 12.5 µM (inactive) | 15.5 µM (inactive) |  | 17.6 µM (inactive) | 21.5 µM (inactive) | 16.4 µM (inactive) | 15.6 µM (inactive) | 20.8 µM (inactive) | 17.7 µM (inactive) | 20.8 µM (inactive) | 20.8 µM (inactive) |  |  |  |  |
| CC(C)(C)OC(=O)NC1CC=CCC1NC(=O)OC(C)(C)C (stereo not drawn) | > 100 µM (inactive) | > 100 µM (inactive) | > 100 µM (inactive) | > 100 µM (inactive) | > 100 | > 100 µM (inactive) |  | > 100 µM (inactive) | > 100 µM (inactive) | > 100 µM (inactive) | > 100 µM (inactive) | > 100 µM (inactive) | > 100 µM (inactive) | > 100 µM (inactive) | > 100 µM (inactive) | > 100 µM (inactive) | > 100 µM (inactive) | > 100 µM (inactive) | > 100 µM (inactive) | > 100 µM (inactive) |
